Data: ChEMBL document CHEMBL1201862, “PubChem BioAssay data set” (2004)
Calls of active or inactive are those of the source. Where a SMILES comes first, the peptide text is derived from it. The star is where a group is joined. CH2Cl = ClC*

Legend:
[1] = biological target: T1, Sentrin-specific protease 8 (Homo sapiens, UniProt Q96LD8); assay type: functional;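 note: luminescence read-out of SENP8 inhibition, dose-response confirmation following an ultra-high-throughput screen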
T1 sequence (Q96LD8 whole entry): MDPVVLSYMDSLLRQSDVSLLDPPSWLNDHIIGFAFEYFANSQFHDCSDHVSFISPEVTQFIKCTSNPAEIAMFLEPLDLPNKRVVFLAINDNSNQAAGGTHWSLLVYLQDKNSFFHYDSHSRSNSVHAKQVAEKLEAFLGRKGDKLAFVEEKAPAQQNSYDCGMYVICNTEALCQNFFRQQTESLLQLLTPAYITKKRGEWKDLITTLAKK

Caspase-3 = biological target: T2, Caspase-3 (Homo sapiens, UniProt P42574); assay type: functional;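 note: Dose-response selectivity test against caspase-3 for candidate inhibitors of sentrin-specific proteases (SENPs)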
T2 sequence (P42574 whole entry): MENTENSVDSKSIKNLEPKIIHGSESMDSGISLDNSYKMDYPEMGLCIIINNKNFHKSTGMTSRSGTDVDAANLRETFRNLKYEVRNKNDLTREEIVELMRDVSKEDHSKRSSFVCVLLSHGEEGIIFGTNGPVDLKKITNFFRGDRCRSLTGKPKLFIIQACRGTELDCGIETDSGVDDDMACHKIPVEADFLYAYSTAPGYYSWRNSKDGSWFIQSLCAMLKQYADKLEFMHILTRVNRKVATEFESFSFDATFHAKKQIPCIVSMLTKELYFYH

[2] = biological target: T3, Sentrin-specific protease 7 (Homo sapiens, UniProt Q9BQF6); assay type: functional;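 note: Luminescence-based dose-response confirmation of ultra-high-throughput screening hits, measuring inhibition of SENP7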
T3 sequence (Q9BQF6 whole entry): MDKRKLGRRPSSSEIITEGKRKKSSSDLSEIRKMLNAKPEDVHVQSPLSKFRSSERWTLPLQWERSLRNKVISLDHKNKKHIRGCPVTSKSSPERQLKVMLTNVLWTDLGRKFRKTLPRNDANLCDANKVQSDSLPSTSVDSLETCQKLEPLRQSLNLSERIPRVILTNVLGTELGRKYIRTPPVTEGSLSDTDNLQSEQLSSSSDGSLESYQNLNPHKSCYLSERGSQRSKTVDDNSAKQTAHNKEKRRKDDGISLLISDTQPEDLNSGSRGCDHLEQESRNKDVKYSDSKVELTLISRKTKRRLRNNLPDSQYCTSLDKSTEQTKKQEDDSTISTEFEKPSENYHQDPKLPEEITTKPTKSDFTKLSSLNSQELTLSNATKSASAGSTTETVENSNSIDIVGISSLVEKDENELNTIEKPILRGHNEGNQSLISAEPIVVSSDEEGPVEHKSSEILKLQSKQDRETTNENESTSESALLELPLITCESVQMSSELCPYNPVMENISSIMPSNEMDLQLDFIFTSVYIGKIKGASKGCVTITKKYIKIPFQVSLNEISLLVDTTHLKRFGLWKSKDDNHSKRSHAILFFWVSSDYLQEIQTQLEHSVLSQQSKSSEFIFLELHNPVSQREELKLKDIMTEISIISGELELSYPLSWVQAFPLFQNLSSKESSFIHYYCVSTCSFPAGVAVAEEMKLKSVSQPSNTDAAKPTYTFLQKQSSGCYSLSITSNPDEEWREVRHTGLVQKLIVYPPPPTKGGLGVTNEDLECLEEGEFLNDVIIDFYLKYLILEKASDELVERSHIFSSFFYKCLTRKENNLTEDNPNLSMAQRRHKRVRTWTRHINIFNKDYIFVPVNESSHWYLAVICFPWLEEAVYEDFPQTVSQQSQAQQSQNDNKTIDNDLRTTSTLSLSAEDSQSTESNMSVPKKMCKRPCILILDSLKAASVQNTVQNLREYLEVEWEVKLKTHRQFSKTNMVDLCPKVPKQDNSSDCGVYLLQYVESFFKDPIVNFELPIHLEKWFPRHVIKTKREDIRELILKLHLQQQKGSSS

[3] = biological target: T4, Sentrin-specific protease 6 (Homo sapiens, UniProt Q9GZR1); assay type: functional;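 note: Luminescence-based dose-response confirmatory assay of SENP6 inhibition, following up an ultra-high-throughput screen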
T4 sequence (Q9GZR1 whole entry): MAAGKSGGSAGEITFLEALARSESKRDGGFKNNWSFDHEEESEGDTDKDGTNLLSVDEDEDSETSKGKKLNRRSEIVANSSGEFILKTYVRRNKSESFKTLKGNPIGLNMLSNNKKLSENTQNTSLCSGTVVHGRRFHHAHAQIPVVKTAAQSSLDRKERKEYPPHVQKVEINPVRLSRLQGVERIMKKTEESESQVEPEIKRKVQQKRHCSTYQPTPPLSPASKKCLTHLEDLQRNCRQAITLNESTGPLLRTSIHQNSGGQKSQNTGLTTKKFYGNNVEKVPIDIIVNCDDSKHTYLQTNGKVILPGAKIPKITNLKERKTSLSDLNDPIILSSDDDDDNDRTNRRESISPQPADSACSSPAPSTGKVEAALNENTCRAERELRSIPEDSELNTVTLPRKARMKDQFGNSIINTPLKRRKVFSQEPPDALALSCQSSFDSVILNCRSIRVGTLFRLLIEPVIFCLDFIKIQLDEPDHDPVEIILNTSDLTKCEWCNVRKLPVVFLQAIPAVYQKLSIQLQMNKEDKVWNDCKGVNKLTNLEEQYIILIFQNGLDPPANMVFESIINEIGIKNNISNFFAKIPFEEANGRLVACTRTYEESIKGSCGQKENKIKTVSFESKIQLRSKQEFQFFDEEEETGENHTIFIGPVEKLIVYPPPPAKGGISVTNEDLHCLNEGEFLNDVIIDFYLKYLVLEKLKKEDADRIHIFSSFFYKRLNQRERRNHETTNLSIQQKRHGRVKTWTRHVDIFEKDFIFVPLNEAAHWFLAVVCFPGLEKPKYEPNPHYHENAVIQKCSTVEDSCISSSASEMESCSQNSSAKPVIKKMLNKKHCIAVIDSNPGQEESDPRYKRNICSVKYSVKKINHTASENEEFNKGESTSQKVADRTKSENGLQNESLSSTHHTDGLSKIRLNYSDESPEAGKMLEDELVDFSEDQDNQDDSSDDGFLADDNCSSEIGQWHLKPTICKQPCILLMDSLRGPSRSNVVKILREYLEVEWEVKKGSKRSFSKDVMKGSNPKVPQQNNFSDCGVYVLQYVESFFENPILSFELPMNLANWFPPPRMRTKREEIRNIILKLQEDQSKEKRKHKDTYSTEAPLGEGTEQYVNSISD

cells [4] = assay type: functional, cell-based
BJ [5] = test: cells; assay type: functional, cell-based; settings: Homo sapiens
[6] = NIH-3T3 fibroblast cytotoxicity, dose response, cytotoxicity control, cell-based, fluorescence, Alamar Blue, secondary assay (AID 2327); assay type: functional;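 note: NIH-3T3 mouse fibroblasts cultured with fluconazole at 8 µg/mL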
[7] = C. albicans growth with fluconazole, confirmation, fluorescence, retest (AID 2467); assay type: functional, cell-based
BJ [8] = test: cytotoxicity toward BJ-TERT-LT-ST fibroblasts, dose response, cell-based, RAS-independent, luminescence (AID 1935); assay type: functional; settings: Homo sapiens;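 note: BJ fibroblasts immortalized with TERT plus LT and ST oncogenes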
BJ [9] = test: cytotoxicity toward BJ-TERT fibroblasts, dose response, cell-based, RAS-independent, luminescence (AID 1933); assay type: functional; settings: Homo sapiens
BJ [10] = test: cytotoxicity toward Ras-transformed BJeLR fibroblasts, dose response, cell-based, alamar blue fluorescence, cherrypicked samples (AID 2631); assay type: functional; settings: Homo sapiens;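 note: confirmatory dose-response assay in RAS-dependent BJ fibroblasts engineered with TERT, LT and ST, with cytotoxicity read by fluorescence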
cells [11] = assay type: functional, cell-based; remark: listed apart in the source
[12] = cytotoxicity toward DRD oncogenic fibroblasts, dose response, cell-based, non-viral oncogenic, luminescence (AID 1934); assay type: functional; settings: Homo sapiens
INS1 = test: beta cell apoptosis inhibitors, cytokine rescue, dose response, luminescence, retest (AID 449756); assay type: functional, cell-based; settings: Rattus norvegicus;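 note: cell death triggered by IL-1 beta plus TNF-alpha plus IFN-gamma mixture; protective hits raise ATP signal compared with cytokine alone wells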
HEK293 = test: inhibitors of LMP1-driven NF-kB reporter, dose response, cell-based, HEK293, luciferase, cherry-pick (AID 588343); assay type: functional; settings: Homo sapiens
Vero = test: host cell cytotoxicity of antiviral hits, dose response, cytotoxicity control for West Nile virus antiviral project, secondary assay (AID 1650); assay type: functional; settings: Chlorocebus sabaeus
[13] = biological target: T5, Latent membrane protein 1 (Human herpesvirus 4 (strain B95-8), UniProt P03230); test: TES1-eGFP NF-kB reporter inhibition versus Tet-On dsRED, dose response, selectivity assay for LMP1 NF-kB inhibitor project, imaging, HEK293T, dual-color eGFP/dsRED, cherry-picks (AID 588398); assay type: functional, cell-based
T5 sequence (P03230 whole entry): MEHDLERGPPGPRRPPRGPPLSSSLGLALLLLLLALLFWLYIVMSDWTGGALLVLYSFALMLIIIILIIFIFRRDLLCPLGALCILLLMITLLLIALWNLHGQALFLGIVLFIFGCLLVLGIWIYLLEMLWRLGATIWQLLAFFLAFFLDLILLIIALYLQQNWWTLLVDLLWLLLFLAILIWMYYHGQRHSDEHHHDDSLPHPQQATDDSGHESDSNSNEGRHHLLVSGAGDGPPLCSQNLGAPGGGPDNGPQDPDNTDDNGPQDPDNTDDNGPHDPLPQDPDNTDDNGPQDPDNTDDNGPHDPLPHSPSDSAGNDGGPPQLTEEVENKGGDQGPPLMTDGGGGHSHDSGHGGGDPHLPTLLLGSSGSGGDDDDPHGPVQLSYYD

[14] = Luminescence Cell-Based Dose Retest to Confirm Inhibitors of Cancer Stem Cells. [Related pubchem assays (depositor defined):AID2717, AID2721]; assay type: functional; settings: Homo sapiens
Protein Wnt-3a = Protein Wnt-3a (Mus musculus, UniProt P27467); test: Wnt3a-driven reporter signaling inhibition, dose response, selectivity assay for Gli-SUFU antagonist project, Wnt-LIGHT cells, luminescence (AID 651570); assay type: functional; settings: read-out: IC50_Mean;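 note: Wnt-LIGHT reporter cells stimulated with conditioned medium from Wnt3a-producing cells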
Protein Wnt-3a, sequence (P27467 whole entry): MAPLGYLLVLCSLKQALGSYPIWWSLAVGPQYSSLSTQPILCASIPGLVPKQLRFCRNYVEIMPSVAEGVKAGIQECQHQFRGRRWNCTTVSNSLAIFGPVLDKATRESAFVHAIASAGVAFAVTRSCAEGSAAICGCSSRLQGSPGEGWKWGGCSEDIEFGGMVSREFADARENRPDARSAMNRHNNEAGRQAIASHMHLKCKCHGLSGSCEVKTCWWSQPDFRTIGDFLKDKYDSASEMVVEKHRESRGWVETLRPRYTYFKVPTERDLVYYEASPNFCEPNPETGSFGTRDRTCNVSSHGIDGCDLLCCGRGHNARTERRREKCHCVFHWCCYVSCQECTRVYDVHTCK

Interleukin-8 [15] = biological target: T6, Interleukin-8 (Homo sapiens, UniProt P10145); test: Dose Response confirmation of uHTS small molecule hits for cystic fibrosis induced NFkb Inhibitors in a PAF-induced IL8 counterscreen.; assay type: functional; settings: read-out: IC50_Mean
T6 sequence (P10145 whole entry): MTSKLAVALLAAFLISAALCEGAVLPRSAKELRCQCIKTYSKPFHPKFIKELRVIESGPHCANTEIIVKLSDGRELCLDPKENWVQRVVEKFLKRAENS

Interleukin-8 [16] = biological target: T6, Interleukin-8; test: Dose Response confirmation of uHTS small molecule hits for cystic fibrosis induced NFkb Inhibitors in a TNFa-induced IL8 counterscreen.; assay type: functional; settings: read-out: IC50_Mean

With `Cc1ccc(-c2cnn(-c3cccc([N+](=O)[O-])c3)c2N)cc1` as the molecule, how does the IC50 [1] read?
Its IC50 is > 100 µM (inactive).

What about the IC50 (Caspase-3) of the same molecule?
The IC50 was 23.7 µM (active).

What about the IC50 [2] of the same molecule?
Its IC50 is 8.04 µM (active).

And the IC50 [3]?
The IC50 was > 100 µM (inactive).

Which EC50 (cells [4]) does the source give for `Oc1cnnc(N/N=C/c2ccccn2)n1` here?
The EC50 was 7.62 µM (active).

And the EC50 (BJ [5])?
The EC50 was 4.19 µM (active).

What about the EC50 [6] of the same molecule?
Its EC50 is 2.5 µM (inconclusive).

And the EC50 [7]?
The EC50 was 1.26 µM (active).

What about the EC50 (BJ [8]) of the same molecule?
Its EC50 is 6.06 µM (active).

What about the EC50 (BJ [9]) of the same molecule?
The EC50 was 7.32 µM (active).

And the EC50 (BJ [10])?
The EC50 was 0.798 µM (active).

What about the EC50 (cells [11]) of the same molecule?
The EC50 was > 350 µM (not active).

And the EC50 [12]?
Its EC50 is 6.35 µM (active).

And the AC50 (INS1)?
Its AC50 is 1.37 µM (active).

With `O=C(Nc1cc(C(F)(F)F)cc(C(F)(F)F)c1)Nc1cnn(-c2ccc([N+](=O)[O-])cc2)c1C(F)(F)F` as the molecule, how does the AC50 (HEK293) read?
The AC50 was 1.12 µM (active).

And the CC50 (Vero)?
Its CC50 is 2.94 µM (active).

What about the AC50 [13] of the same molecule?
The AC50 was 3.91 µM (active).

And the AC50 [14]?
Its AC50 is 0.442 µM (active).

With `Nc1ccc(Br)cc1-c1nc2ccccc2[nH]c1=O` as the molecule, how does the IC50 (Protein Wnt-3a) read?
Its IC50 is 0.449 µM (active).

Which IC50 (Interleukin-8 [15]) does the source give for `CC(=O)NC(CC(C)C)C(=O)NC(Cc1ccccc1)C(=O)CCl` (stereo not drawn) (Ac-Leu-Phe-CH2Cl; configuration not given here) here?
The IC50 was 1.04 µM (active).

What about the IC50 (Interleukin-8 [16]) of the same molecule?
The IC50 was 3.63 µM (active).
